Measured values from ChEMBL document CHEMBL2202969, “Discovery and evolution of phenoxypiperidine hydroxyamide dual CCR3/H₁ antagonists. Part I” (Bioorg Med Chem Lett, 2012).

Tests used:
[1] = biological target: T1, C-C chemokine receptor type 3 (Homo sapiens, UniProt P51677); experiment: Displacement of [3H]-4-(2,4-dichloro-3-methylphenoxy)-l'-[4- (methylsulfonyl)benzoyl]-l,4'-bipiperidine from human recombinant CCR3 expressed in CHOK1 cells after 2 hrs by scintillation counting analysis; format: cell-based, CHO-K1
T1 sequence (P51677 whole entry): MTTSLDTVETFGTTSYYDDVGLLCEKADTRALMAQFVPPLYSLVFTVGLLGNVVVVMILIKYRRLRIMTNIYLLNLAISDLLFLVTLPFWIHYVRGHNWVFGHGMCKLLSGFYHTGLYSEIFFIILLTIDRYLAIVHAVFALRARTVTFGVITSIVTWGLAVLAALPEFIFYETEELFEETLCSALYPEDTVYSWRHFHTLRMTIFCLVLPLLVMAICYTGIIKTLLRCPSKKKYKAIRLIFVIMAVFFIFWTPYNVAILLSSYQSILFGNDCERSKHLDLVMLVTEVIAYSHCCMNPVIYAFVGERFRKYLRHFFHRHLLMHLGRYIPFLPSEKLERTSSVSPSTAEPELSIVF

[2] = biological target: T2, C-C chemokine receptor type 3 (Homo sapiens) (UniProt P51677); experiment: Displacement of [3H]-4-(2,4-dichloro-3-methylphenoxy)-l'-[4- (methylsulfonyl)benzoyl]-l,4'-bipiperidine from human recombinant CCR3 expressed in CHOK1 cells at 1 uM after 2 hrs by scintillation counting analysis; format: cell-based; conditions: CHO-K1
T2 sequence (whole entry): T1 sequence (P51677 whole entry)

[3] = physchem; conditions: octanol/water
[4] = biological target: Voltage-gated inwardly rectifying potassium channel KCNH2 (Homo sapiens, UniProt Q12809)
[5] = in vitro; conditions: human
[6] = biological target: T3, Histamine H1 receptor (Homo sapiens, UniProt P35367); experiment: Displacement of [3H]-pyrilamine from human histamine H1 receptor expressed in recombinant CHOK1 cells after 1 hr; format: cell-based, CHO-K1
[7] = in vitro; conditions: rat
[8] = biological target: C-C chemokine receptor type 3 (Homo sapiens) (UniProt P51677); experiment: Displacement of radioligand from human CCR3 expressed in recombinant CHOK1 cells at 1 uM after 1 hr; conditions: CHO-K1
[9] = biological target: T4, C-C chemokine receptor type 1 (Homo sapiens, UniProt P32246); experiment: Antagonist activity at CCR1; format: functional
T4 sequence (P32246 whole entry): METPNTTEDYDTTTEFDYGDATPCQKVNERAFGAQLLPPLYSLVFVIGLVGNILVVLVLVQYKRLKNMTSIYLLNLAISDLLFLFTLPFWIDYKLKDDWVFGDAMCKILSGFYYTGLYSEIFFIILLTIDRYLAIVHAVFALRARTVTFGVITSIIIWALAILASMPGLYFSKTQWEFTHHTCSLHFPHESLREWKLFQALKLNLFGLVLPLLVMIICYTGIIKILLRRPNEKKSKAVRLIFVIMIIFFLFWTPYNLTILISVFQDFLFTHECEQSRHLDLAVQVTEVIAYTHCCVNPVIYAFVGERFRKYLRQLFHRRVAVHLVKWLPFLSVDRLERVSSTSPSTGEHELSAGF

[10] = in vitro; conditions: human, hepatocytes
[11] = in vitro; conditions: rat, hepatocytes
[12] = in vivo; conditions: rat
[13] = in vivo; conditions: rat; remark: listed apart in the source
[14] = in vivo; conditions: rat; remark: listed apart in the source
[15] = biological target: T3, Histamine H1 receptor; experiment: Antagonist activity at histamine H1 receptor; format: functional
[16] = Oral bioavailability in rat; format: ADME, organism-based; conditions: in vivo

T3 sequence (P35367 whole entry): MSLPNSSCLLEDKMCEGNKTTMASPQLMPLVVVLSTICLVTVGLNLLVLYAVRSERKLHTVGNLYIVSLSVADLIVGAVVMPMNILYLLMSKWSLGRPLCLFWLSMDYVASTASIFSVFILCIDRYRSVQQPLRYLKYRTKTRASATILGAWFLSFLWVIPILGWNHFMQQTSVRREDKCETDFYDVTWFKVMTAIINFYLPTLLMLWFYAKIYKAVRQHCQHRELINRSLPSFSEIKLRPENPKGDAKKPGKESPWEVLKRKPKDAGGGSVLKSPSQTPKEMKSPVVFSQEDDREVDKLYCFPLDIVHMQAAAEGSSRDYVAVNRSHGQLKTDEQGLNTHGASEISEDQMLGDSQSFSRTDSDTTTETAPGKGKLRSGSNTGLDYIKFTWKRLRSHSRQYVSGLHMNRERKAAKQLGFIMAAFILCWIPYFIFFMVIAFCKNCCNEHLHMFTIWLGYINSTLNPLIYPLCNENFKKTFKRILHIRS
Chain of Voltage-gated inwardly rectifying potassium channel KCNH2 (Q12809 whole entry): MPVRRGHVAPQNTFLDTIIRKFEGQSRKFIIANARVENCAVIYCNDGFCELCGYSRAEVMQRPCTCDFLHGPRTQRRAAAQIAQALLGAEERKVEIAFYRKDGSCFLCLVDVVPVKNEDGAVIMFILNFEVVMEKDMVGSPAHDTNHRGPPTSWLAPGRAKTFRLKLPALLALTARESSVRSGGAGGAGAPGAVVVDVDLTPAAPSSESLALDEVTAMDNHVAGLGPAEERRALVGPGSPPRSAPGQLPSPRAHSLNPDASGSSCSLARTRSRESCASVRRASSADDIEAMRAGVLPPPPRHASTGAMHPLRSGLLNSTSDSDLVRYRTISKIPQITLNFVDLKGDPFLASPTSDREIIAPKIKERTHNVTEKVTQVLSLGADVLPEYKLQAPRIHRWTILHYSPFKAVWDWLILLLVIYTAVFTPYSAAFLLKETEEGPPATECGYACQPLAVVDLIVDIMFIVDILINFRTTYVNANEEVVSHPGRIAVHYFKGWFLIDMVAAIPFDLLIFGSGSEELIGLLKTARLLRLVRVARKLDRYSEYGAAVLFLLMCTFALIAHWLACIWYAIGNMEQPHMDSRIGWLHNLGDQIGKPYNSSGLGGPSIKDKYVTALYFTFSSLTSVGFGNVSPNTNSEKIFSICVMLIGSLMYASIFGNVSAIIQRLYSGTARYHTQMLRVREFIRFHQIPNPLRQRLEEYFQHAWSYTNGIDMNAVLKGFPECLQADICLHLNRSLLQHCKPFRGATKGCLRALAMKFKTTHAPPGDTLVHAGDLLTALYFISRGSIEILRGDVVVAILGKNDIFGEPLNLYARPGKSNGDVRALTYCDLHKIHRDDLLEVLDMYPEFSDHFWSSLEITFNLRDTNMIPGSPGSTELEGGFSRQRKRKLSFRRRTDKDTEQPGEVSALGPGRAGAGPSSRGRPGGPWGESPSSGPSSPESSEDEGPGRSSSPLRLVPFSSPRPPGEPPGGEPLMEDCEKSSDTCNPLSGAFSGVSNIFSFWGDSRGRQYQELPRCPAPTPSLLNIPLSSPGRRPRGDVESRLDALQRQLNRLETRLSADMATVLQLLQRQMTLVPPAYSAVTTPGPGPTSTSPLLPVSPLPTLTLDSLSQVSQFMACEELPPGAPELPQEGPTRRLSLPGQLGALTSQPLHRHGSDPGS

O=C(NC[C@@H](O)CN1CCC(Oc2ccc(Cl)c(Cl)c2)CC1)c1n[nH]c(=O)c2ccccc12
Ki [1]: 1.58 nM | inhibition [2]: > 70% | logD [3]: 3.7

O=C(NC[C@@H](O)CN1CCC(Oc2ccc(Cl)c(Cl)c2)CC1)n1c(=O)[nH]c2ccccc21
Ki [1]: 2.51 nM | inhibition [2]: > 70% | logD [3]: 4.5 | IC50 [4]: 501 nM

N#Cc1cccc(OCCCN2CCC(Oc3ccc(Cl)c(Cl)c3)CC2)c1
Ki [1]: 794 nM | microsomal CLint ([5]; liver microsomes): 3 µL/min/mg | Ki [6]: 12.6 nM | inhibition [2]: > 70% | logD [3]: > 4.5 | microsomal CLint ([7]; liver microsomes): 129 µL/min/mg

N#Cc1cccc(C(=O)NC[C@@H](O)CN2CCC(Oc3ccc(Cl)c(Cl)c3)CC2)c1
Ki [1]: 20 nM | microsomal CLint ([5]; microsomes): 4 µL/min/mg | Ki [6]: 20 nM | inhibition [8]: > 70% | inhibition [2]: > 70% | logD [3]: 3.5 | microsomal CLint ([7]; microsomes): 25 µL/min/mg

N#Cc1cccc(S(=O)(=O)NC[C@@H](O)CN2CCC(Oc3ccc(Cl)c(Cl)c3)CC2)c1
microsomal CLint ([5]; liver microsomes): 7 µL/min/mg | inhibition [2]: > 70% | microsomal CLint ([7]; liver microsomes): 13 µL/min/mg

COc1cccc(SC[C@@H](O)CN2CCC(Oc3ccc(Cl)c(Cl)c3)CC2)c1
Ki [1]: 126 nM | microsomal CLint ([5]; liver microsomes): 17 µL/min/mg | Ki [6]: 20 nM | inhibition [8]: > 70% | inhibition [2]: > 70% | logD [3]: > 4.5 | microsomal CLint ([7]; liver microsomes): 49 µL/min/mg

O=C(NC[C@@H](O)CN1CCC(Oc2ccc(Cl)c(Cl)c2)CC1)c1c[nH]c(=O)c2ccccc12
inhibition [2]: > 70% | IC50 [9]: 5010 nM

O=C(NC[C@@H](O)CN1CCC(Oc2ccc(Cl)c(Cl)c2)CC1)c1cc(=O)[nH]c2ccccc12
Ki [1]: 7.94 nM | Ki [6]: 3.98 nM | inhibition [8]: > 70% | inhibition [2]: > 70% | logD [3]: 3.5 | IC50 [4]: > 10000 nM

CS(=O)(=O)c1ccccc1C(=O)NC[C@@H](O)CN1CCC(Oc2ccc(Cl)c(Cl)c2)CC1
Ki [1]: 15.8 nM | hepatocyte CLint [10]: < 2 µL/min/1e6 cells | Ki [6]: 200 nM | inhibition [8]: > 70% | hepatocyte CLint [11]: < 3 µL/min/1e6 cells | inhibition [2]: > 70% | logD [3]: 2.3 | microsomal CLint ([7]; liver microsomes): 8 µL/min/mg

N#Cc1ccc(OC[C@@H](O)CNC2CCN(Cc3ccc(Cl)c(Cl)c3)CC2)cc1
Ki [1]: 126 nM | microsomal CLint ([5]; liver microsomes): < 3 µL/min/mg | Ki [6]: 501 nM | inhibition [8]: > 70% | inhibition [2]: > 70%

O=C(NC[C@@H](O)CN1CCC(Oc2ccc(Cl)c(Cl)c2)CC1)c1cnnc2ccccc12
Ki [1]: 12.6 nM | Ki [6]: 12.6 nM | inhibition [8]: > 70% | inhibition [2]: > 70% | logD [3]: 3.3 | IC50 [4]: 6310 nM

O=C(NC[C@@H](O)CN1CCC(Oc2ccc(Cl)c(Cl)c2)CC1)c1cn2cc(F)ccc2n1
Ki [1]: 200 nM | Ki [6]: 15.8 nM | inhibition [8]: > 70% | hepatocyte CLint [11]: 7 µL/min/1e6 cells | inhibition [2]: > 70% | logD [3]: 3.3 | microsomal CLint ([7]; liver microsomes): 19 µL/min/mg

CS(=O)(=O)c1ccccc1C(=O)NCC(O)CNC1CCN(Cc2ccc(Cl)c(Cl)c2)CC1 (configuration not stated)
Ki [1]: 79.4 nM | clearance [12]: 54 mL/min/kg | Ki [6]: 1260 nM | hepatocyte CLint [11]: 4 µL/min/1e6 cells | inhibition [2]: > 70% | logD [3]: 1.2 | microsomal CLint ([7]; liver microsomes): < 3 µL/min/mg | half-life [13]: 2.3 h | Vd [14]: 9 L/kg

CN(C[C@@H](O)CN1CCC(Oc2ccc(Cl)c(Cl)c2)CC1)C(=O)c1c[nH]c(=O)c2ccccc12
Ki [1]: 2.51 nM | inhibition [8]: > 70% | inhibition [2]: > 70% | logD [3]: 3.2 | IC50 [4]: 2000 nM

O=C(NC[C@@H](O)CN1CCC(Oc2ccc(Cl)c(Cl)c2)CC1)c1c[nH]c2ccccc12
Ki [1]: 2.51 nM | Ki [6]: 31.6 nM | inhibition [2]: > 70% | logD [3]: 3.9 | IC50 [4]: 2000 nM

O=C(Nc1ccccc1OCC(O)CN1CCC(Oc2ccc(Cl)c(Cl)c2)CC1)C1CCC1 (configuration not stated)
Ki [1]: 100 nM | IC50 [15]: 5010 nM | Ki [9]: 15.8 nM

CS(=O)(=O)c1ccc(C(=O)NC[C@@H](O)CN2CCC(Oc3ccc(Cl)c(Cl)c3)CC2)s1
Ki [1]: 251 nM | Ki [6]: 100 nM | inhibition [8]: > 70% | hepatocyte CLint [11]: 3 µL/min/1e6 cells | inhibition [2]: > 70% | logD [3]: 2.9 | microsomal CLint ([7]; liver microsomes): 20 µL/min/mg

O[C@@H](CNC1CCN(Cc2ccc(Cl)c(Cl)c2)CC1)COc1ccc2ncsc2c1
Ki [1]: 158 nM | microsomal CLint ([5]; liver microsomes): < 3 µL/min/mg | Ki [6]: 316 nM | inhibition [8]: > 70% | inhibition [2]: > 70%

O=C(NC[C@@H](O)CN1CCC(Oc2ccc(Cl)c(Cl)c2)CC1)c1n[nH]c2ccccc12
Ki [1]: 1.58 nM | Ki [6]: 7.94 nM | inhibition [8]: > 70% | inhibition [2]: > 70% | logD [3]: 2.9 | IC50 [4]: 251 nM

COc1cc(C(=O)NC[C@@H](O)CN2CCC(Oc3ccc(Cl)c(Cl)c3)CC2)ccc1N
bioavailability [16]: 30% | Ki [1]: 3.98 nM | hepatocyte CLint [10]: < 2 µL/min/1e6 cells | clearance [12]: 56 mL/min/kg | Ki [6]: 63.1 nM | inhibition [8]: > 70% | hepatocyte CLint [11]: 6 µL/min/1e6 cells | inhibition [2]: > 70% | logD [3]: 3.1 | microsomal CLint ([7]; liver microsomes): 18 µL/min/mg | half-life [13]: 6.5 h | IC50 [4]: 251 nM | Vd [14]: 25 L/kg

N#Cc1cccc(OC[C@@H](O)CCN2CCC(Oc3ccc(Cl)c(Cl)c3)CC2)c1
Ki [1]: 31.6 nM | microsomal CLint ([5]; liver microsomes): < 3 µL/min/mg | Ki [6]: 0.316 nM | inhibition [8]: > 70% | inhibition [2]: > 70% | logD [3]: > 4.5 | microsomal CLint ([7]; liver microsomes): 22 µL/min/mg

N#Cc1cccc(OC[C@@H](O)CNC2CCN(Cc3ccc(Cl)c(Cl)c3)CC2)c1
Ki [1]: 316 nM | Ki [6]: 501 nM | inhibition [8]: > 70% | hepatocyte CLint [11]: 7 µL/min/1e6 cells | inhibition [2]: > 70% | logD [3]: 3.1 | microsomal CLint ([7]; liver microsomes): 23 µL/min/mg

N#Cc1cccc(OC[C@@H](O)CN2CCC(Oc3ccc(Cl)c(Cl)c3)CC2)c1
Ki [1]: 251 nM | microsomal CLint ([5]; liver microsomes): < 3 µL/min/mg | Ki [6]: 3.16 nM | inhibition [2]: > 70% | logD [3]: > 4.5 | microsomal CLint ([7]; liver microsomes): 23 µL/min/mg
